This note sets out measurements from PubChem BioAssay AID179 (DTP/NCI, 2004).

Values joined by “and” are separate entries in the source; they are usually repeats but may differ in a detail not shown here. Equal values may be shown once. Active and inactive are the calls of the source.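 The calls were made as follows: active = compounds giving half or more protection of infected cells from virus-caused growth loss, again on retest; inactive = the rest.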 Where a SMILES comes first, the peptide text is derived from it. The star is where a group is joined. Boc = CC(C)(C)OC(=O)*; tBu = CC(C)(C)* A value given as a limit tells only on which side of the number the result lay.

This assay has as its system CEM cells HIV-1 protection, formazan growth assay. As to the kind of experiment: NCI AIDS Antiviral Assay. As to conditions: for IC50: measured here: growth of uninfected CEM cells. The method in brief: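 Steps: treat uninfected and HIV-1-infected human CEM cells at five drug levels; quantify growth by soluble formazan; retest any compound reaching 50% protection; classify actives from the retest.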

Regarding `C=C(C)[C@@H]1CC[C@]2(CO)CC[C@]3(C)[C@H](CC[C@@H]4[C@@]5(C)CC[C@H](O)C(C)(C)[C@@H]5CC[C@]43C)[C@@H]12`, the EC50 (as a rule, the midpoint of the concentration-response curve) is 41.7 µM and the IC50 (as a rule, the concentration needed to halve the response being measured) was 69.2 µM.

Turning to `O=C1N[C@H]2[C@H](O)[C@H](O)[C@@H](O)[C@H](O)[C@@H]2c2cc3c(c(O)c21)OCO3`, the result was inactive.

Turning to `CC(OC(C)(C)C)C(NC(=O)C(N)CCCCNC(=O)OC(C)(C)C)C(=O)NC(Cc1ccccc1)C(=O)O` (configuration not stated) (H-Lys(Boc)-Thr(tBu)-Phe-OH; configuration not given here), the EC50 is greater than 200 µM and the half-maximal inhibitory concentration (IC50) was greater than 200 µM.

In the case of `CCC[CH2][Sn]1([CH2]CCC)[S]CC[N]1S(=O)(=O)c1ccc(C)cc1`, the EC50 was greater than 200 µM and the IC50 was determined as 0.0776 µM.

Turning to `O=[N+]([O-])c1ccc(-c2csc3nc(-c4ccccc4)nn23)cc1`, the EC50 was greater than 200 µM and the IC50 is greater than 200 µM.

As to `c1ccc(N=c2nc(Nc3ccccc3)ss2)cc1`, the EC50 is greater than 200 µM and the IC50 turned out to be 30.9 µM.

`Cc1cccc(Nc2nc(NNC(=O)Cc3ccccc3)nc(NNC(=O)c3ccncc3)n2)c1`: the EC50 is greater than 100 µM and the half-inhibitory concentration (IC50) was greater than 100 µM.

For `Oc1ccc2c(c1)OCC1c3ccccc3OC21` (configuration not stated), the outcome was inactive.

Consider `Cc1cccc(C)c1NC(=O)/C(=N/NC(N)=S)C(C)C(=O)c1ccc(Cl)cc1` (configuration not stated), for which the EC50 is greater than 44.7 µM and the half-inhibitory concentration (IC50) was greater than 44.7 µM.

As to `NC(=O)N(O)c1cccc(Br)c1`, the EC50 is greater than 200 µM and the concentration for half-maximal inhibition (IC50) was 145 µM.

`C(=Nc1cnc2ccccc2c1)c1ccncc1`: the EC50 is greater than 288 µM and the IC50 is 66.1 µM.

`CC(C)NC(=O)CNC(=O)c1ccccc1SC(=O)CCCC[n+]1ccccc1` registered a concentration giving a half-maximal response (EC50) greater than 0.575 µM.

Consider `NC1=NN(c2ccccc2)C(=O)C1C(=O)C(=O)NC1C2CC3CC(C2)CC1C3` (configuration not stated), for which the EC50 was greater than 13.8 µM and the IC50 was greater than 13.8 µM.

With `CCC(C)(O)c1cn(-c2cccc(S(=O)(=O)O)c2)nn1` (configuration not stated), the EC50 is greater than 417 µM and the IC50 is greater than 417 µM.

Take `CC1(c2ccccc2)OC(=O)c2c1ccc1ccccc21` (configuration not stated): the outcome was inactive.

On to `NC(CCC(=O)NC(CSSCC(NC(=O)CCC(N)C(=O)O)C(=O)O)C(=O)O)C(=O)O` (configuration not stated), for which the EC50 was greater than 200 µM and the concentration for half-maximal inhibition (IC50) is greater than 200 µM.

Turning to `Cc1c2n(c(=O)[nH]c1=O)C1OC(CO)C(O2)C1N=[N+]=[N-]` (configuration not stated), the EC50 is 135 µM and the IC50 was greater than 200 µM.

Regarding `CC(C)Oc1cc2c(c3oc(=O)c4c(c13)CCCC4)C(=O)[C@H](C)[C@@H](C)O2`, the EC50 was greater than 200 µM and the IC50 came to 12.3 µM.

`Oc1c(C2=N[C@H]3CCCC[C@@H]3N2)ccc2ccccc12`: the EC50 was greater than 200 µM and the IC50 is greater than 200 µM.

Regarding `Cc1nc2c(=S)[nH]ncc2[nH]1`, the EC50 is greater than 200 µM and the IC50 was greater than 200 µM.

Consider `O=[N+]([O-])/C(Cl)=C(/C(Cl)=C(Cl)Cl)N1CCCCC1`, for which the EC50 was greater than 200 µM and the IC50 is 12.3 µM.

For the compound `CCOC(=O)C(CCC(N)=O)(CCC(=O)OC)C(=O)OCC`, the EC50 is greater than 200 µM and the half-inhibitory concentration (IC50) was greater than 200 µM.

Take `COc1cc2c([C@@H](OC(=O)c3ccccc3)c3ccc4c(c3)OCO4)nccc2c(OC)c1OC`: the result was inactive.

As for `Nc1nc(=O)[nH]c(N)c1N=O`, the EC50 was greater than 200 µM and the IC50 was greater than 200 µM.

Consider `CC(C)(C)C1=NC(=P(c2ccccc2)(c2ccccc2)c2ccccc2)C(=O)O1`, for which the EC50 was greater than 100 µM and the IC50 is greater than 100 µM.

`COc1ccc2c(c1)CC1(O)COc3cc(OC)ccc3C1O2` (configuration not stated): the EC50 was greater than 200 µM and the IC50 was 67.6 µM.

With `COc1ccc2c(O)c(Oc3ccc(Cl)cc3)c(=O)oc2c1`, the outcome was inactive.

In the case of `O=c1[nH][nH]c(=O)c2ncccc12`, the EC50 was greater than 200 µM and the IC50 was greater than 200 µM.

As for `Cc1ccc(-n2cc(-c3ccc(Cl)cc3)c3c2N=CN2NC(c4cccs4)=NC32)cc1` (configuration not stated), the EC50 was greater than 100 µM and the 50% inhibitory concentration (IC50) stood at 42.7 µM.

`COc1ccc2[nH]c(C[P+](c3ccccc3)(c3ccccc3)c3ccccc3)cc2c1`: the EC50 is greater than 200 µM and the half-maximal inhibitory concentration (IC50) was determined as 12 µM.

`CC1CCc2c(c(CC3CC(=O)NC(=O)C3)nn2-c2ccccc2)C1` (configuration not stated): the EC50 was greater than 200 µM and the half-maximal inhibitory concentration (IC50) was greater than 200 µM.

For the compound `NC(=O)c1nnc2cc(F)ccc2c1N`, the EC50 is greater than 200 µM and the IC50 was 74.1 µM.

Take `Nc1ccccc1/C(O)=C1/CCOC1=O`: the EC50 was greater than 7.08 µM and the IC50 is greater than 7.08 µM.

`CC1CN2C(=O)[C@@H](OC(=O)Nc3cc([N+](=O)[O-])cc([N+](=O)[O-])c3)[C@H]3CC[C@@H]1[C@]32C` (some centres not stated): the EC50 is greater than 100 µM and the IC50 is 55 µM.

As to `NC(N)=NS(=O)(=O)c1ccc(Nc2c3ccccc3nc3c(C(=O)Nc4ccc(S(N)(=O)=O)cc4)ccc(Cl)c23)cc1`, the EC50 is greater than 41.7 µM and the IC50 is greater than 41.7 µM.

As for `CC(=O)Nc1ccc(-c2nnc(SCC(=O)Nc3ccc(Cl)cc3)o2)cc1`, the EC50 was greater than 89.1 µM and the IC50 turned out to be 5.01 µM.

Regarding `NC[C@H]1Nc2ccccc2[C@@H](O)C1O` (some centres not stated), the EC50 was 47.9 µM and the concentration for half-maximal inhibition (IC50) was 1290 µM.

Consider `CN(/N=C\c1ccc2ccccc2c1)C1=NCCCN1`, for which the EC50 was greater than 200 µM and the half-maximal inhibitory concentration (IC50) amounted to 10 µM.

Consider `Cc1ccc(/C=C2\CN(C)CC3C2=NN(c2ccccc2)C3c2ccc(C)cc2)cc1` (configuration not stated), for which the EC50 is greater than 200 µM and the IC50 is greater than 200 µM.

For `COCc1nc(C#N)c(N)o1`, the EC50 is greater than 200 µM and the IC50 is greater than 200 µM.

Regarding `CCOC(=O)/C(C#N)=C/Nc1c(C)n(C)n(-c2ccccc2)c1=O`, the EC50 is greater than 200 µM and the IC50 was greater than 200 µM.

Regarding `CCOC(=O)c1c(C)c(=O)cnc2c(C#N)cnn12`, the EC50 is greater than 115 µM and the half-inhibitory concentration (IC50) is greater than 115 µM.

Consider `Sc1ccccc1-n1c(-c2ccccc2)ccc1-c1ccccc1`, for which the EC50 is greater than 200 µM; the concentration for half-maximal inhibition (IC50) was 151 µM and 155 µM.

For `O=C1/C(=C/c2ccccc2)CN(C(=O)C(Cl)(Cl)Cl)C/C1=C\c1ccccc1`, the outcome was inactive.

As for `Cc1cc(S(=O)(=O)Nc2nc(N)nc(N3CCOCC3)n2)c(SCC(=O)O)cc1Cl`, the EC50 is greater than 200 µM and the IC50 is greater than 200 µM.

On to `c1ccc(N=C2SC3=NCCN3C2=Nc2ccccc2)cc1`, for which the EC50 was greater than 200 µM and the IC50 was determined as 8.32 µM.

As for `COc1ccc(-n2c(C)nc3ccc(NC4OCC(O)C(O)C4O)cc3c2=O)cc1` (configuration not stated), the EC50 was greater than 200 µM; the IC50 is 69.2 µM and 45.7 µM.

Consider `O=C(O)COc1ccc(C(=O)/C(SS/C(C(=O)c2ccc(OCC(=O)O)c(Cl)c2Cl)=C2\C=C(c3ccccc3Cl)SS2)=C2/C=C(c3ccccc3Cl)SS2)c(Cl)c1Cl`, for which the EC50 was greater than 35.5 µM and the half-inhibitory concentration (IC50) is greater than 35.5 µM.

As for `C=C1CCC(OC(C)=O)C2(C)C(OC(C)=O)CC3OC3(C)C2C(OC(C)=O)C2C(C)C(=O)OC2C1Cl` (configuration not stated), the EC50 was greater than 200 µM and the 50% inhibitory concentration (IC50) is greater than 200 µM.

Regarding `CN(C)C=C(S(C)(=O)=O)S(C)(=O)=O`, the EC50 is greater than 200 µM and the IC50 stood at 126 µM.

For `CCN(CC)CCCN1CC(=O)N2CCCCN2C(=O)C1`, the EC50 is greater than 200 µM and the IC50 was greater than 200 µM.

With `COC1=CC(O)(CC(N)=O)c2ccccc2C1=O` (configuration not stated), the EC50 was greater than 1000 µM and the IC50 is greater than 1000 µM.
